From paper PMC12844237, “A Novel Quinolone JH62 (E-2-(Tridec-4-en-1-yl)-quinolin-4(1H)-one) from Pseudomonas aeruginosa Exhibits Potent Anticancer Activity” (Microorganisms, 2025) come the findings set out here.

In one series the test system is A549 cells. Kind of series: Chromosome staining experiment. The series is classed as cell-based, human. As to conditions: A549, 5 μM DOX or 25 μM JH62 for 6 h. The method, then: Metaphase chromosome spreads were prepared from A549 cells. Briefly, A549 cells were cultured. After treatment with JH62 or DOX, cells were incubated with Colcemid (Gibco BRL; 0.2 μg/mL final concentration) for 2 h to arrest cells in metaphase. Cells were then subjected to hypotonic treatment in KCl (0.075 M) at 37 °C for 5 min, and fixed by repeated washing with ice-cold freshly prepared 3:1 (vol/vol) methanol:acetic acid. Chromosome spreads were prepared on premarked glass slides using the “drop-cryo” protocol. The chromosome suspension was dropped onto a slide. This was followed by adding three drops of 45% acetic acid and placing a coverslip over the suspension. The slide was then inverted and placed on dry ice for 15 min. The spreads were postfixed in 2.5% glutaraldehyde in cacodylate buffer (pH 7.4, 75 mM) for 15 min and washed with cacodylate buffer (0.1 M). The chromosomes were stained with Vista Green DNA dye (Cell Biolabs, Singapore). After staining, the preparations were washed in water for 5, 10, and 15 min, then dehydrated using a series of ethanol solutions as follows: 5 min in a 70% solution, 10 min in an 85% solution, and 15 min in 100% ethanol. Finally, slides were mounted with a permanent mounting medium, sealed, and analyzed by microscopy.

Series [1] deals with HCT116: human colon cancer cell lines. Kind of series: WST-1 cell viability, HCT116. Conditions: HCT-116, HCT116 (colon) cancer cell line. The series is classed as cell-based. The text has this: Different cells were utilized as follows: MEF: murine embryonic fibroblast (RRID: CVCL_L690); AML12: mouse liver cell lines (RRID: CVCL_0140); WI-38: human lung fibroblast cell lines (RRID: CVCL_0579); THLE-2: human liver epithelial cell lines (RRID: CVCL_3803); A549: human lung cancer cell lines (RRID: CVCL_0023); HEPG2: human liver cancer cell lines (RRID: CVCL_0027); HEP3B: human hepatoma cell lines (RRID: CVCL_0326); BxPC3: human pancreatic cancer cell lines (RRID: CVCL_0186); U87: human primary glioblastoma cell lines (RRID: CVCL_0022); DU145: human prostate cancer cell lines (RRID: CVCL_0105); MCF7: human breast cancer cell lines (RRID: CVCL_0031); HeLa: human cervical cancer cell lines (RRID: CVCL_0030); HCT116: human colon cancer cell lines (RRID: CVCL_0291). Cells were maintained in Dulbecco’s modified Eagle’s medium (DMEM, Gibco) supplemented with L-glutamine (Lonza) (2 mM), 10% fetal bovine serum (FBS, Hyclone), 1 × non-essential amino acids, and sodium pyruvate (1 mM). THLE-2 cells were maintained in THLE-2 Cell Complete Medium (Zhong Qiao Xin Zhou, Shanghai, China). Cells were incubated at 37 °C in a humidified incubator with 5% CO2. […]
Cell viability was assessed using the WST-1 assay, based on a previously reported method with slight modifications. […] Absorbance at OD450 was measured using a microplate reader (Synergy H1; BioTek Instruments, Winooski, VT, USA).

In the next series the test system is LC3B in A549 cells. Kind of series: Immunofluorescence staining for LC3B. The class given is cell-based, human. As to conditions: A549, JH62 over 2–24 h. The source says: We next investigated whether autophagy contributes to JH62-induced cell death.

Turning to `CCCCCCCC/C=C/CCCc1cc(=O)c2ccccc2[nH]1` [JH62, E-2-(tridec-4-en-1-yl)-quinolin-4(1H)-one], the chromosome morphology result in the series with A549 cells is recorded as “maintained normal morphology similar to the control”. Moreover, the concentration for half-maximal inhibition (IC50) in series [1] turned out to be 8.6 ± 0.1 µM. In addition, in the series on LC3B in A549 cells, the “LC3B puncta (autophagosome formation)” value was “progressively increased both the intensity and number of LC3B puncta”.

In general, IC50 refers to the point on the concentration scale where inhibition reaches its midpoint.
